Laboratory results published in PubChem BioAssay AID463199 (Broad Institute, 2010).
Active and inactive are the calls of the source.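 Rule for the calls: active = AC50, the dose giving half-maximal effect, exceeds a fixed cutoff for a compound that rescues yeast growth under heat; inactive = the rest, inconclusive results apart.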

tested on: S. cerevisiae Burl-1 ts mutant growth, BacTiter-Glo, 38.5C 24 h; experiment: restored growth of temperature-sensitive Burl-1 yeast – whole organism, S. cerevisiae, Burl-1 ts mutant, luminescence, counter-screen for SUMOylation pathway inhibitor project, dose response (AID 463199)

SMILES | AC50
O=S(=O)(NCc1cccc(C(F)(F)F)c1)NCc1ccccc1F | > 42 µM (inactive)
COc1cccc(N2CCN(C3CCCC(C)C3)CC2)c1 (stereo not drawn) | > 42 µM (inactive)
COc1ccc(S(=O)(=O)N2CCN(c3ccc(F)cc3)CC2)cc1C(=O)N1CCOCC1 | > 42 µM (inactive)
CCCCNC(=O)c1ccccc1NC(=O)C1=C(C)OCCS1 | 11.3 µM
Cc1ccccc1Cn1cc(NC(=O)c2cc3nc(-c4ccco4)cc(C(F)(F)F)n3n2)cn1 | > 42 µM (inactive)
Cn1nc(C(=O)NCCc2ccc(Cl)cc2)c2c1-c1ccccc1S(=O)(=O)C2 | > 42 µM (inactive)
COc1ccc(CNC(=O)c2cc(=O)c3cc(C)cc(C)c3o2)cc1 | > 42 µM (inactive)
CCOC(=O)C1CCN(CC(O)COc2ccc(C(C)(C)C)cc2)CC1 (stereo not drawn) | > 42 µM (inactive)
CCOC(=O)CNC(=O)c1cccnc1 | > 42 µM (inactive)
COc1ccc(Oc2c(C)oc3cc(OC(=O)N(C)C)ccc3c2=O)cc1 | > 42 µM (inactive)
COc1ccc2c(c1)[C@H]1[C@H](CO2)[C@H](c2ccccc2)[C@]2(C)C(=O)Nc3ccc(Br)cc3C(=O)N12 | > 42 µM (inactive)
Cc1onc(-c2ccccc2Cl)c1C(=O)N1CCc2ccccc2C1 | > 42 µM (inactive)
CN(C=O)CP(=O)(O)CN(C)C=O | > 42 µM (inactive)
CCOc1ccccc1CN1CCNC(=O)C1CC(=O)NCCN1CCOC1=O (stereo not drawn) | > 42 µM (inactive)
COc1cccc(OC)c1C(=O)N1CCN(Cc2ccccc2C)CC1 | > 42 µM (inactive)
Cc1cc(C)c[n+](-c2nc3ccccc3nc2[N-]S(=O)(=O)c2ccc(Br)s2)c1 | > 42 µM (inactive)
COc1ccc(S(=O)(=O)NC(C)C(=O)NCc2ccccn2)cc1Cl (stereo not drawn) | > 42 µM (inactive)
COc1ccc(NC(=O)c2ccc(COc3ccccc3OC)o2)cc1OC | > 42 µM (inactive)
CCOC(=O)C1CCCN(C(=O)/C=C/c2ccc(Cl)cc2)C1 (stereo not drawn) | > 42 µM (inactive)
Cc1c(NC(C)c2cc(Cl)ccc2O)c(=O)n(-c2ccccc2)n1C (stereo not drawn) | > 42 µM (inactive)
O=C(O)c1ccc(CNC(=O)c2ccccc2NC(=O)c2ccc([N+](=O)[O-])cc2)cc1 | > 42 µM (inactive)
CCOc1ccc(/C=N/NS(=O)(=O)c2ccc(C)cc2)cc1OC | > 42 µM (inactive)
Cc1nnc(SCC(=O)NC(C)(C)C)n1NCc1ccc(Cl)cc1 | > 42 µM (inactive)
CCOc1ccc(-n2cc(C(=O)NCCOC)c3cc(OC)c(OC)cc3c2=O)cc1 | > 42 µM (inactive)
O=Cc1ccc(Oc2cccc(C(F)(F)F)c2)nc1 | > 42 µM (inactive)

SMILES | AC50
Cc1nc(C)n(CC(=O)N2CCCC(C(=O)c3cccc4ccccc34)C2)n1 (stereo not drawn) | > 42 µM (inactive)
COC(=O)C1C2C=CC3(CN(CCc4ccccc4)C(=O)C13)O2 (stereo not drawn) | > 21 µM (inactive)
Cc1ccc(-c2ccc(/C=N/n3cnnc3)o2)cc1 | > 42 µM (inactive)
CCCN1C(=O)c2ccccc2NC1c1ccc(C)cc1 (stereo not drawn) | > 42 µM (inactive)
CCCCC(O)(c1ccc(F)cc1)C(CN1CCOCC1)c1ccc(Cl)cc1 (stereo not drawn) | > 21 µM (inactive)
O=C(NC1CCCC1)C(c1cccs1)N(C(=O)c1ccno1)c1ccccc1 (stereo not drawn) | > 42 µM (inactive)
O=Cc1ccccc1OCCN1CCCC1=O | > 42 µM (inactive)
CCN1CCCC1CN(Cc1cc2ccc(C)cc2[nH]c1=O)C(=S)Nc1ccc(OC)cc1OC (stereo not drawn) | > 42 µM (inactive)
C=CCNC(=O)c1cc(-c2cccnc2)nc2ccccc12 | > 42 µM (inactive)
CC(=Nc1ccccc1)C1=C(O)CC(C)(C)CC1=O | > 42 µM (inactive)
Cc1cccc(N2C(=O)CSC2c2cccnc2)c1 (stereo not drawn) | > 42 µM (inactive)
COc1ccc(N2CCN(C(c3cccs3)C(C)NS(C)(=O)=O)CC2)cc1 (stereo not drawn) | > 42 µM (inactive)
CCOC(=O)N1CCN(S(=O)(=O)c2ccc(Br)s2)CC1 | > 42 µM (inactive)
Cc1ccc(S(=O)(=O)NC2CCCCCCC2)cc1 | > 42 µM (inactive)
CN(C)c1ccc(C(CNS(=O)(=O)c2ccc([N+](=O)[O-])cc2)N2CCOCC2)cc1 (stereo not drawn) | > 42 µM (inactive)
CN(C(=O)COc1cc(=O)n(C)c2ccccc12)c1ccc(Cl)cc1 | > 42 µM (inactive)
Cc1cc(-c2ccccc2)n(-c2ccc(C(=O)NC(C)C)cc2)n1 | > 42 µM (inactive)
Cc1ccc(-c2nc(-c3cccnc3)sc2CC(=O)O)cc1 | > 42 µM (inactive)
O=C(CCNC(=O)c1ccc(Br)cc1)NCc1ccccc1F | > 42 µM (inactive)
O=C(NCCc1c[nH]c2ccccc12)c1cc(S(=O)(=O)N2CCCCC2)ccc1N1CCOCC1 | > 42 µM (inactive)
COc1ccc(-n2c(-c3ccccc3)nc3ccccc3c2=O)cc1 | > 42 µM (inactive)
CCC(C(=O)Nc1cccnc1)c1ccccc1 (stereo not drawn) | > 42 µM (inactive)
CN(C/C=C/c1ccccc1[N+](=O)[O-])Cc1ccccc1 | > 42 µM (inactive)
CCOc1ccc(S(=O)(=O)N2CCN(C(=O)CN3C(=O)NC4(CCCC4)C3=O)CC2)cc1 | > 42 µM (inactive)
COc1ccccc1CNCc1cc(OC)c(OC)c(OC)c1 | > 42 µM (inactive)

SMILES | AC50
O=C(O)c1ccc(COc2c(F)c(F)cc(F)c2F)cc1 | > 42 µM (inactive)
CSc1ncccc1C(=O)NC1CCCc2c1cnn2-c1ccc(C)c(C)c1 (stereo not drawn) | > 42 µM (inactive)
OC(COCc1cccs1)CN1CCCCCC1 (stereo not drawn) | > 42 µM (inactive)
COCCN(C(=O)c1csnn1)C(C(=O)NC1CCCCC1)c1ccccc1 (stereo not drawn) | > 42 µM (inactive)
COc1cc(CN2CCCC(CO)(Cc3cccc(Cl)c3)C2)cc2c1OCO2 (stereo not drawn) | > 42 µM (inactive)
Cc1cnc(=O)[nH]c1SCC(=O)c1ccc(F)cc1 | > 42 µM (inactive)
COc1ccccc1-c1nnc(SCC(=O)NC2CCS(=O)(=O)C2)n1N (stereo not drawn) | > 42 µM (inactive)
CSc1cccc(N2C(=O)C3CCCN3C2=S)c1 (stereo not drawn) | > 42 µM (inactive)
Cc1ccc(NS(=O)(=O)c2csc(C(N)=O)c2)cc1C | > 42 µM (inactive)
Cc1ccc(NS(=O)(=O)c2cc(C(=O)Nc3cccc([N+](=O)[O-])c3)ccc2C)cc1 | > 42 µM (inactive)
COc1ccc(C)cc1NC(=O)C12CCC(C)(C(=O)O1)C2(C)C (stereo not drawn) | > 42 µM (inactive)
COc1ccccc1CSc1ncc(-c2ccc([N+](=O)[O-])cc2)[nH]1 | > 42 µM (inactive)
CCOc1ccccc1/C=N\Nc1cnn(Cc2ccccc2)c(=O)c1Cl | > 42 µM (inactive)
CC(C)c1ccc(C2C(C(=O)c3ccco3)=C(O)C(=O)N2CCN2CCOCC2)cc1 (stereo not drawn) | > 42 µM (inactive)
Cc1cc(NC(=O)c2ccccc2F)n(C(C)(C)C)n1 | > 42 µM (inactive)
CC1CCC(C(C)C)C(OC(=O)COC(=O)c2cccn2C)C1 (stereo not drawn) | > 42 µM (inactive)
Cc1ccc2c(c1)C(O)(CC(=O)c1cccnc1)C(=O)N2 (stereo not drawn) | > 42 µM (inactive)
Cc1nn(C)cc1S(=O)(=O)Nc1ncccn1 | > 42 µM (inactive)
Cc1c(C(=O)N2CCCC2)c(S(=O)(=O)Nc2cccc(Br)c2)c(C)n1C | > 42 µM (inactive)
c1ccc2cc(C3CCCCC3)ncc2c1 | > 42 µM (inactive)
CN(CC(=O)NCc1cccs1)S(=O)(=O)c1cccc2nsnc12 | > 42 µM (inactive)
Cc1ccc(C2=NN(CC(=O)NCc3cccs3)C(=O)CC2)cc1 | > 42 µM (inactive)
O=C(CCN1CCc2ccccc2C1)Nc1ccc2c(c1)OCO2 | > 42 µM (inactive)
